Series [1] relates to A-375 human melanoma cell line. The experiment in a line: In vitro combination cytotoxic activity, cell proliferation (CellTiterGlo), 6 days. Particulars: single agent. The series is classed as cell-based. The method, then: Materials and methods. […] Drugs were added to the experimental culture, and incubations were carried out at 37° C. for 6 days in the dark. Serial dilution curves were prepared in medium by using a liquid handler Multiprobe II (PerkinElmer). Scalar doses of the compound of formula (I) and antineoplastic agents were added to the medium 24 hours after seeding. Drug solutions were prepared immediately before use. At the end of treatment, cell proliferation was determined by an intracellular adenosine triphosphate monitoring system (CellTiterGlo- Promega) using an Envision (PerkinElmer) reader. Inhibitory activity was evaluated comparing treated versus control data using the Assay Explorer (MDL) program. The dose inhibiting 50% of cell growth was calculated using sigmoidal interpolation curve.

The test system of series [2] is Capan-1 BRCA-2 mutated human pancreatic xenograft model. Particulars: for Toxicity: number of death animals. The method, then:
(§1) Balb, Nu/Nu male mice, from Harlan (Italy) or CD1 Nu/Nu female mice from CRI, were maintained in agreement with the European Communities Council Directive no. 86/609/EEC, in cages with paper filter cover, food and bedding sterilized and acidified water. Fragments of Capan-1 human pancreatic cancer tumors, MX-1 human breast cancer tumors and HCT-116 human colon carcinoma were implanted subcutaneously. KM-12 cells were grown in vitro and 3×106 in 0,2 ml were implanted subcutaneously. The treatment started when tumors were palpable.
(§2) Compounds of formula (I) were administered by oral route in a volume of 10 ml/kg at the indicated doses from day 1 to 12. Temozolomide was administered orally at the dose of 62.5 mg/kg for 5 days. When combined, compound of formula (I) was administered from day 1 to 12 and temozolomide from day 3 to day 7. Irinotecan was administered intravenous at the dose of 45 mg/kg 2 or 3 times every 4 days. When combined, compound of formula (I) was administered from day 1 to 8 or to 12 and irinotecan on day 3 and day 7 or and days 1, 5 and 9. Docetaxel was administered intravenously at the dose of 5 mg/kg once a week for three times. When combined, compound of formula (I) was administered from day 1 to 12 and docetaxel on days 1, 8 and 15.
(§3) Tumor growth and body weight were measured every 3 days. Tumor growth was assessed by caliper. The two diameters were recorded and the tumor weight was calculated according the following formula: length (mm)×width^2 /2. The effect of the antitumor treatment was evaluated as the delay in the onset of an exponential growth of the tumor (see for references Anticancer drugs 7:437-60, 1996). This delay (T-C value) was defined as the difference of time (in days) required for the treatment group (T) and the control group (C) tumors to reach a predetermined size (1 g). Toxicity was evaluated on the basis of number of death animals during the experiment.

Series [3] concerns MX-1 human breast cancer xenograft model BRCA-1 mutated. Particulars: MX-1 xenograft; for Toxicity: number of death animals. As to the method:
as §1, §2, §3

Series [4] relates to ovarian cancer patients with confirmed BRCA-1 mutations. Particulars: phase I, monotherapy, oral, preliminary data; cited from earlier work.
Series [5] deals with HCT-116 human colorectal cancer xenograft model. The method, then: as §1, §2, §3
In series [6] the test system is KM-12 human colorectal cancer xenograft model pTEN mutated. The method, then:
as §1, §2, §3

Series [7] relates to HCT-116 human colon cancer cell line. The experiment in a line: In vitro combination cytotoxic activity, cell proliferation (CellTiterGlo), 6 days. Format: cell-based. Particulars: single agent. The method, then:
(§4) Materials and methods. Exponentially growing human cancer cell line (MDA-MB-436, MDA-MB-468, A-375, HCT-116, KM-12) was seeded and incubated at 37° C. in a humidified 5% CO2 atmosphere. Drugs were added to the experimental culture, and incubations were carried out at 37° C. for 6 days in the dark. Serial dilution curves were prepared in medium by using a liquid handler Multiprobe II (PerkinElmer). Scalar doses of the compound of formula (I) and antineoplastic agents were added to the medium 24 hours after seeding. Drug solutions were prepared immediately before use. At the end of treatment, cell proliferation was determined by an intracellular adenosine triphosphate monitoring system (CellTiterGlo- Promega) using an Envision (PerkinElmer) reader. Inhibitory activity was evaluated comparing treated versus control data using the Assay Explorer (MDL) program. The dose inhibiting 50% of cell growth was calculated using sigmoidal interpolation curve.

Series [8] deals with KM-12 human colon cancer cell line. Described as above. Format: cell-based. As to the method:
as §4

Where [9] appears, read: Capan-1, Table 8, temozolomide 62.5 mg/kg oral, days 3 to 7.
[10] abbreviates: Capan-1, Table 9, temozolomide 62.5 mg/kg oral, days 3 to 7.
The mark [11] stands for this setting: docetaxel 5 mg/kg intravenous, days 1, 8 and 15.
The mark [12] stands for this setting: Capan-1, Table 8, Compound 1 100 mg/kg oral, days 1 to 12.
[13] abbreviates: Capan-1, Table 9, Compound 2 50 mg/kg oral, days 1 to 12.
The mark [14] stands for this setting: Compound 2 100 mg/kg oral, days 1 to 8 (footnote *).

These results are taken from patent US20130129841A1, “THERAPEUTIC COMBINATION COMPRISING A PARP-1 INHIBITOR AND AN ANTI-NEOPLASTIC AGENT” (NERVIANO MEDICAL SCIENCES S.r.l., priority 2010, published 2013).

Where two headings read alike, the source gives them in different places.

`Cn1nnc2c(C(N)=O)ncn2c1=O` [Temozolomide, temozolomide, reference compound]: the IC50 in series [1] is 932 µM. Moreover, in series [2] (setting [9]), the T-C is 5 days and the Toxicity is reported as 0/7. For the same compound, in series [2] (setting [10]), the T-C was found to be 9 days and the Toxicity is given as 0/7.

`CC(=O)O[C@@]12CO[C@@H]1C[C@H](O)[C@@]1(C)C(=O)[C@H](O)C3=C(C)[C@@H](OC(=O)[C@H](O)[C@@H](NC(=O)OC(C)(C)C)c4ccccc4)C[C@@](O)([C@@H](OC(=O)c4ccccc4)[C@H]21)C3(C)C` [Docetaxel, docetaxel, reference compound]: in series [3] (setting [11]), the T-C amounted to 3 days and the Toxicity is on record as 0/7.

Take `NC(=O)c1cccc2c1C(=O)N(C1CCN(C3CCC(F)(F)CC3)CC1)C2` [Compound 1, 2-[1-(4,4-difluorocyclohexyl)piperidin-4-yl]-3-oxo-2,3-dihydro-1H-isoindole-4-carboxamide]: in series [2] (setting [12]), the T-C is given as 5 days and the Toxicity is 0/7.

For the compound `O=C(c1cc(Cc2n[nH]c(=O)c3ccccc23)ccc1F)N1CCN(C(=O)C2CC2)CC1` [AZD2281], the partial responses in series [4] is 4 out of 10.

Take `CCc1c2c(nc3ccc(OC(=O)N4CCC(N5CCCCC5)CC4)cc13)-c1cc3c(c(=O)n1C2)COC(=O)[C@]3(O)CC` [Irinotecan, irinotecan, reference compound]: the T-C in series [5] (HCT-116 xenograft, irinotecan 45 mg/kg intravenous, days 1, 5 and 9) is given as 16 days; in series [6] (KM-12 xenograft, irinotecan 45 mg/kg intravenous, days 3 and 7) it was 1 days. Also, the Toxicity in series [5] (HCT-116 xenograft, irinotecan 45 mg/kg intravenous, days 1, 5 and 9, number of death animals) was 0/7; in series [6] (KM-12 xenograft, irinotecan 45 mg/kg intravenous, days 3 and 7, number of death animals), 0/7.

With `CCc1c2c(nc3ccc(O)cc13)-c1cc3c(c(=O)n1C2)COC(=O)[C@]3(O)CC` [SN-38, reference compound], the IC50 was determined as 0.0011 µM in series [7] and 0.0015 µM in series [8] (single agent).

For the compound `NC(=O)c1cc(F)cc2c1C(=O)N(C1CCN(C3CCC(F)(F)CC3)CC1)C2` [Compound 2, 2-[1-(4,4-difluorocyclohexyl)piperidin-4-yl]-6-fluoro-3-oxo-2,3-dihydro-1H-isoindole-4-carboxamide], the IC50 in series [1] came out at 32.5 µM; in series [7] (Homo sapiens), 14.1 µM; in series [8] (Homo sapiens, KM12, single agent) it was 19.4 µM. In addition, the T-C was 6 days in series [2] (setting [13]); 1 days in series [5] (HCT-116 xenograft, Compound 2 50 mg/kg oral, days 1 to 8); 4 days in series [5] (HCT-116 xenograft, Compound 2 100 mg/kg oral, days 1 to 8); 1 days in series [6] (KM-12 xenograft, Compound 2 50 mg/kg oral, days 1 to 12); 2 days in series [3] (setting [14]). Moreover, the Toxicity was 0/7 in series [2] (setting [13]); 0/7 in series [5] (mouse, in vivo, po, 50 mg/kg); 0/7 in series [5] (mouse, in vivo, po, 100 mg/kg); 0/7 in series [6] (mouse, in vivo, po, 50 mg/kg); 0/7 in series [3] (setting [14]).
